Experimental data reported in patent publication US20250382305A1 (PTC THERAPEUTICS, INC., priority 2022, published 2025).

Tests used:
[1] = tested on: Total ATXN3 (tATXN3) protein; assay: Endogenous Total ATXN3 (tATXN3) Protein Assay (MSD immunoassay of cell lysates); format: cell-based; conditions: average IC50, total ATXN3 protein in cell lysate after 48 h with compound (Table 1)
Description: Endogenous Total ATXN3 (tATXN3) Protein Assay
Meso Scale Discovery (MSD) 96-well or 384-well plates were coated overnight at 4° C. with Ataxin 3 mouse monoclonal antibody (Invitrogen, MA3-082) at a concentration of 0.5 μg/mL in PBS (30 μL per well). Plates were then washed three times with 300 μL wash buffer (0.05% TWEEN®-20, polyethylene glycol sorbitan monolaurate, in PBS) and blocked (Meso Scale Diagnostics, R93BA-1; 5% BSA in PBS) for 2 h at RT with rotational shaking and then washed three times with wash buffer.
(§1) Test compounds were serially diluted 3.16-fold in 100% DMSO to generate a 7-point concentration curve. Aliquots of 0.5 μL of diluted compounds were transferred to a 96-well flat bottom plate by a liquid handler. An aliquot of 0.5 μL DMSO was also transferred to separate wells and used as controls. Duplicate samples were set up for each compound concentration and for the DMSO control.
Cells were thawed and incubated in cell culture media (DMEM, 10% FBS, and 1% antibiotic cocktail) for 72 h. Cells were trypsinized, counted, and re-suspended to a concentration of 100,000 cells/mL in cell culture media. A 100 μL aliquot of the cell suspensions were plated at 10,000 cells per well in the compound containing 96 well microtiter plate and incubated for in a cell culture incubator (37° C., 5% CO2, 100% relative humidity). After 48 h, the medium was removed and 50-100 μL of lysis buffer (Meso Scale Diagnostics, R60TX-2) containing 1× halt protease inhibitor cocktail of (Thermo Scientific, Halt™ Protease Inhibitor Cocktail, 78430) per well was added to cells to provide a “cell lysate”. The plate was placed on a shaker at 4° C. for 30 minutes, then stored at −80° C.
Cell lysate samples (25 μL) were transferred to the antibody-coated MSD plate and incubated overnight at 4° C. After removal of the lysates, the plate was washed three times with wash buffer, and 25 μL of Ataxin 3 recombinant rabbit monoclonal antibody (Invitrogen, #702788) secondary antibody (diluted to 0.25 μg/mL in 0.05% TWEEN®-20 in blocking buffer) was added to each well and incubated with shaking for 1-2 h at room temperature. Following incubation with the secondary antibody, the wells were rinsed with wash buffer and then 25 μL of Anti Rabbit Antibody Goat SULFO-TAG Labeled (Meso Scale Diagnostics, R32AB-1) detecting antibody (diluted to […] in 0.05% TWEEN®-20 in blocking buffer) was added to each well and incubated with shaking for 1 h at room temperature. After rinsing three times with wash buffer, 150 μL of Read Buffer T with surfactant (tris-based buffer containing tripropylamine, Meso Scale Diagnostics, R92TC-1) were added to each empty well, and the plate was imaged on a SI 6000 imager (MSD) according to manufacturers' instructions provided for 96- or 384-well plates.
(§2) An average IC50>1 μM is indicated by one star (*), between >0.3 μM and ≤1 μM is indicated by two stars (**), between >0.03 μM and ≤0.3 μM is indicated by three stars (***), and ≤0.03 μM is indicated by four stars (****).

[2] = tested on: ATXN3 pre-mRNA; assay: RT-qPCR Assay to Quantify Exon 4 Skipping in ATXN3 pre-mRNA in Cells; format: cell-based; conditions: percent exon 4 skipping in ATXN3 pre-mRNA, RT-qPCR of cell lysates; average IC50
Description: RT-qPCR Assay to Quantify Exon 4 Skipping in ATXN3 pre-mRNA in Cells
as §1
Cells were thawed and incubated in cell culture media (DMEM, 10% FBS, and 1% antibiotic cocktail) for 72 h. Cells were trypsinized, counted, and re-suspended to a concentration of 100,000 cells/mL in cell culture media. A 100 μL aliquot of the cell suspensions were plated at 10,000 cells per well in the compound containing 96 well microtiter plate and incubated for in a cell culture incubator (37° C., 5% CO2, 100% relative humidity).
After 24 h, media was aspirated from the cells and 50 μL of the RCL2 lysis buffer (10 mM Tris-HCL pH 7.4, 150 mM NaCl, 0.33% IGEPAL® CA-630) was added to each well and incubated at RT for 1 min. Chilled nuclease free water (50 μL per well) was added and the plates were immediately transferred on ice. After 1 min on ice, plates were frozen at −80° C. overnight.
Preparation of RT-qPCR Reaction Mixture:
An aliquot of 2 μL/well of the cell lysates was transferred using the liquid handler to the Armadillo 384-Well PCR plate containing 8 μL/well of the RT-qPCR reaction mixture that was prepared as detailed above. The plates were then sealed with MicroAmp™ Optical Adhesive Film followed by spinning down for 1 min and placed in the CFX384 thermocycler (BioRad).
The RT-qPCR was carried out at the following temperatures for the indicated time: • Step 1: 48° C. (30 min) • Step 2: 95° C. (10 min) • Step 3: 95° C. (15 sec) • Step 4: 60° C. (1 min); then, repeated Steps 3 and 4 for a total of 40 cycles.
The percent exon 4 skipping was calculated for each dose of compound treatment using Equations 1 and 2.
Data were fit to a dose response curve and the IC50 was interpolated using XLfit® statistical and curve fitting package.
as §2

N[C@@H]1CC=CC[C@@H]1c1sc2c(NCc3cccs3)cc(Cl)nc2c1Br.N[C@H]1CC=CC[C@H]1c1sc2c(NCc3cccs3)cc(Cl)nc2c1Br (racemic) [Compound 144, 2-((1S,6RS)-6-aminocyclohex-3-en-1-yl)-3-bromo-5-chloro-N-(thiophen-2-ylmethyl)thieno[3,2-b]pyridin-7-amine and 2-((1R,6SR)-6-aminocyclohex-3-en-1-yl)-3-bromo-5-chloro-N-(thiophen-2-ylmethyl)thieno[3,2-b]pyridin-7-amine]
IC50 [1]: ≤ 30 nM
IC50 [2]: ≤ 30 nM

N[C@H]1CC=CC[C@@H]1c1sc2c(NCc3cccs3)cc(Cl)nc2c1Br [Compound 186, 2-((1S,6S)-6-aminocyclohex-3-en-1-yl)-3-bromo-5-chloro-N-(thiophen-2-ylmethyl)thieno[3,2-b]pyridin-7-amine]
IC50 [1]: ≤ 30 nM
IC50 [2]: ≤ 30 nM

CC#CCNc1cc(Cl)nc2c(C)c([C@H]3CC=CC[C@@H]3N)sc12 [Compound 306, 2-((1S,6S)-6-aminocyclohex-3-en-1-yl)-N-(but-2-yn-1-yl)-5-chloro-3-methylthieno[3,2-b]pyridin-7-amine]
IC50 [1]: 30 to 300 nM
IC50 [2]: 30 to 300 nM

CCc1c([C@H]2CCCC[C@@H]2N)sc2c(NCc3cccs3)cc(Cl)nc12 (single isomer, unassigned) [Compound 40, 2-((1S,2S)-2-aminocyclohexyl)-5-chloro-3-ethyl-N-(thiophen-2-ylmethyl)thieno[3,2-b]pyridin-7-amine or 2-((1R,2R)-2-aminocyclohexyl)-5-chloro-3-ethyl-N-(thiophen-2-ylmethyl)thieno[3,2-b]pyridin-7-amine]
IC50 [1]: 30 to 300 nM
IC50 [2]: 30 to 300 nM

N[C@H]1CCCC[C@@H]1c1sc2c(NCc3cccs3)cc(Cl)nc2c1Br [Compound 55, 2-((1S,2S)-2-aminocyclohexyl)-3-bromo-5-chloro-N-(thiophen-2-ylmethyl)thieno[3,2-b]pyridin-7-amine]
IC50 [1]: 30 to 300 nM
IC50 [2]: 30 to 300 nM

Cc1c([C@H]2CCCCCC[C@@H]2N)sc2c(NCc3cccs3)cc(Cl)nc12 [Compound 94, 2-((1S,2S)-2-aminocyclooctyl)-5-chloro-3-methyl-N-(thiophen-2-ylmethyl)thieno[3,2-b]pyridin-7-amine]
IC50 [1]: 300 to 1000 nM
IC50 [2]: 30 to 300 nM

N[C@@H]1CC=CC[C@H]1c1sc2c(NCc3ccncc3)nc(Cl)nc2c1Cl [Compound 440, 6-((1R,6R)-6-aminocyclohex-3-en-1-yl)-2,7-dichloro-N-(pyridin-4-ylmethyl)thieno[3,2-d]pyrimidin-4-amine]
IC50 [1]: > 1000 nM
IC50 [2]: 300 to 1000 nM

2-((2R,3R)-3-aminotetrahydro-2H-pyran-2-yl)-5-chloro-N-(furan-2-ylmethyl)-3-methylthieno[3,2-b]pyridin-7-amine and 2-((2S,3S)-3-aminotetrahydro-2H-pyran-2-yl)-5-chloro-N-(furan-2-ylmethyl)-3-methylthieno[3,2-b]pyridin-7-amine [Compound 25]
IC50 [1]: 30 to 300 nM
IC50 [2]: 30 to 300 nM

C#Cc1c([C@H]2CCCC[C@@H]2N)sc2c(NCc3ccccc3)cc(Cl)nc12 [Compound 210, 2-((1S,2S)-2-aminocyclohexyl)-N-benzyl-5-chloro-3-ethynylthieno[3,2-b]pyridin-7-amine]
IC50 [1]: ≤ 30 nM
IC50 [2]: ≤ 30 nM

2-((1R,2R)-2-aminocyclohexyl)-N-benzyl-5-chloro-3-iodothieno[3,2-b]pyridin-7-amine and 2-((1S,2S)-2-aminocyclohexyl)-N-benzyl-5-chloro-3-iodothieno[3,2-b]pyridin-7-amine [Compound 295]
IC50 [1]: 30 to 300 nM
IC50 [2]: 30 to 300 nM

N[C@H]1CCCO[C@@H]1c1sc2c(NCc3ccccc3)nc(Cl)nc2c1Br [Compound 69, 6-((2S,3S)-3-aminotetrahydro-2H-pyran-2-yl)-N-benzyl-7-bromo-2-chlorothieno[3,2-d]pyrimidin-4-amine]
IC50 [1]: 30 to 300 nM
IC50 [2]: ≤ 30 nM

N[C@@H]1CCCC[C@H]1c1sc2c(NCc3cccs3)cc(Cl)nc2c1COC(F)F.N[C@H]1CCCC[C@@H]1c1sc2c(NCc3cccs3)cc(Cl)nc2c1COC(F)F (mixture of isomers) [Compound 257, 2-((1S,2S)-2-aminocyclohexyl)-5-chloro-3-((difluoromethoxy)methyl)-N-(thiophen-2-ylmethyl)thieno[3,2-b]pyridin-7-amine and 2-((1R,2R)-2-aminocyclohexyl)-5-chloro-3-((difluoromethoxy)methyl)-N-(thiophen-2-ylmethyl)thieno[3,2-b]pyridin-7-amine]
IC50 [1]: 30 to 300 nM
IC50 [2]: ≤ 30 nM

Cc1c([C@H]2OCCC[C@@H]2N)sc2c(NCc3ccco3)nc(Cl)nc12 [Compound 62, 6-((2S,3S)-3-aminotetrahydro-2H-pyran-2-yl)-2-chloro-N-(furan-2-ylmethyl)-7-methylthieno[3,2-d]pyrimidin-4-amine]
IC50 [1]: 30 to 300 nM
IC50 [2]: ≤ 30 nM

N[C@@H]1CCCO[C@H]1c1sc2c(NCc3ccccc3)cc(Cl)nc2c1I [Compound 132, 2-((2R,3R)-3-aminotetrahydro-2H-pyran-2-yl)-N-benzyl-5-chloro-3-iodothieno[3,2-b]pyridin-7-amine]
IC50 [1]: 300 to 1000 nM
IC50 [2]: > 1000 nM

(2-((1S,2S)-2-aminocyclohexyl)-5-chloro-7-((thiophen-2-ylmethyl)amino)thieno[3,2-b]pyridin-3-yl)methanol and (2-((1R,2R)-2-aminocyclohexyl)-5-chloro-7-((thiophen-2-ylmethyl)amino)thieno[3,2-b]pyridin-3-yl)methanol [Compound 360]
IC50 [1]: 30 to 300 nM
IC50 [2]: 30 to 300 nM

N[C@H]1CCC[C@H]1c1sc2c(NCc3cccs3)cc(Cl)nc2c1Cl [Compound 4, 2-((1R,2S)-2-aminocyclopentyl)-3,5-dichloro-N-(thiophen-2-ylmethyl)thieno[3,2-b]pyridin-7-amine]
IC50 [1]: 30 to 300 nM
IC50 [2]: 30 to 300 nM

2-((1R,2R)-2-aminocyclohexyl)-5-chloro-3-methyl-N-(thiophen-2-ylmethyl)thieno[3,2-b]pyridin-7-amine or 2-((1S,2S)-2-aminocyclohexyl)-5-chloro-3-methyl-N-(thiophen-2-ylmethyl)thieno[3,2-b]pyridine-7-amine [Compound 35]
IC50 [1]: 300 to 1000 nM
IC50 [2]: 300 to 1000 nM

CCOC(=O)C1=CC[C@@H](c2sc3c(NCc4cccs4)cc(Cl)nc3c2C)[C@@H](N)C1 [Compound 445, ethyl (4R,5S)-5-amino-4-(5-chloro-3-methyl-7-((thiophen-2-ylmethyl)amino)thieno[3,2-b]pyridin-2-yl)cyclohex-1-ene-1-carboxylate]
IC50 [1]: 300 to 1000 nM
IC50 [2]: 300 to 1000 nM
